PubChem BioAssay (NCI)
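A five-concentration, 48-hour dose response in 96-well plates underlies each endpoint, interpolated linearly between surrounding concentrations. Abbreviation: GI50, concentration required for 50% inhibition of growth. Definition used: TGI = concentration required for complete inhibition of growth.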

Tests used:
Test in all cases: NCI anticancer screen, dose series, 48 h
CCRF-CEM leukemia = tested on: CCRF-CEM leukemia
786-0 renal = tested on: 786-0 renal
ACHN renal = tested on: ACHN renal
SN12C renal = tested on: SN12C renal
SNB-78 CNS = tested on: SNB-78 CNS
LOX IMVI melanoma = tested on: LOX IMVI melanoma
U251 CNS = tested on: U251 CNS
RPMI-8226 leukemia = tested on: RPMI-8226 leukemia
KM20L2 colon = tested on: KM20L2 colon
HL-60(TB) leukemia = tested on: HL-60(TB) leukemia
HOP-18 NSCLC = tested on: HOP-18 NSCLC
EKVX NSCLC = tested on: EKVX NSCLC
MALME-3M melanoma = tested on: MALME-3M melanoma
SK-OV-3 ovarian = tested on: SK-OV-3 ovarian
HCT-116 colon = tested on: HCT-116 colon
CAKI-1 renal = tested on: CAKI-1 renal
NCI-H522 lung = tested on: NCI-H522 lung
UACC-62 melanoma = tested on: UACC-62 melanoma
NCI-H460 lung = tested on: NCI-H460 lung
OVCAR-5 ovarian = tested on: OVCAR-5 ovarian
RXF 393 renal = tested on: RXF 393 renal
HCC-2998 colon = tested on: HCC-2998 colon
K-562 leukemia = tested on: K-562 leukemia
UACC-257 melanoma = tested on: UACC-257 melanoma
M19-MEL melanoma = tested on: M19-MEL melanoma
A549 NSCLC = tested on: A549 NSCLC
UO-31 renal = tested on: UO-31 renal

C1COCCN1.C1COCCN1.NC1CCCCC1N.[Cl-].[Pt+2] (stereo not drawn)
TGI (CCRF-CEM leukemia): > 100 µM | GI50 (786-0 renal): > 100 µM | TGI (786-0 renal): > 100 µM | GI50 (ACHN renal): > 100 µM | TGI (ACHN renal): > 100 µM | GI50 (SN12C renal): > 100 µM | TGI (SN12C renal): > 100 µM | GI50 (SNB-78 CNS): > 100 µM | TGI (SNB-78 CNS): > 100 µM | GI50 (LOX IMVI melanoma): > 100 µM | TGI (LOX IMVI melanoma): > 100 µM | GI50 (U251 CNS): > 100 µM | TGI (U251 CNS): > 100 µM | GI50 (RPMI-8226 leukemia): > 100 µM | TGI (RPMI-8226 leukemia): > 100 µM | GI50 (KM20L2 colon): > 100 µM | TGI (KM20L2 colon): > 100 µM | GI50 (HL-60(TB) leukemia): > 100 µM | TGI (HL-60(TB) leukemia): > 100 µM | GI50 (HOP-18 NSCLC): > 100 µM | TGI (HOP-18 NSCLC): > 100 µM | GI50 (EKVX NSCLC): > 100 µM | TGI (EKVX NSCLC): > 100 µM | GI50 (MALME-3M melanoma): 50.6 µM | TGI (MALME-3M melanoma): > 100 µM | GI50 (SK-OV-3 ovarian): > 100 µM | TGI (SK-OV-3 ovarian): > 100 µM | GI50 (HCT-116 colon): > 100 µM | TGI (HCT-116 colon): > 100 µM | GI50 (CAKI-1 renal): > 100 µM | TGI (CAKI-1 renal): > 100 µM | GI50 (NCI-H522 lung): 46.5 µM | TGI (NCI-H522 lung): > 100 µM | GI50 (UACC-62 melanoma): > 100 µM | TGI (UACC-62 melanoma): > 100 µM | GI50 (NCI-H460 lung): > 100 µM | TGI (NCI-H460 lung): > 100 µM | GI50 (OVCAR-5 ovarian): > 100 µM | TGI (OVCAR-5 ovarian): > 100 µM | GI50 (RXF 393 renal): > 100 µM | TGI (RXF 393 renal): > 100 µM | GI50 (HCC-2998 colon): > 100 µM | TGI (HCC-2998 colon): > 100 µM | GI50 (K-562 leukemia): > 100 µM | TGI (K-562 leukemia): > 100 µM | GI50 (UACC-257 melanoma): > 100 µM | TGI (UACC-257 melanoma): > 100 µM | GI50 (M19-MEL melanoma): > 100 µM | TGI (M19-MEL melanoma): > 100 µM | GI50 (A549 NSCLC): > 100 µM | TGI (A549 NSCLC): > 100 µM | GI50 (UO-31 renal): > 100 µM | TGI (UO-31 renal): > 100 µM
